The pKi is −log10 of the Ki, conventionally taken in molar units. A higher pKi goes with a small Ki. What is called Ki is the dissociation constant of the complex between target and ligand, obtained from inhibition or displacement.

pKi: −log10 of the molar value. Where two headings read alike, the source gives them in different places.

In one test the target is T1, PKC beta-I (Homo sapiens, UniProt P05771).
T1 construct: purchased Invitrogen
Put plainly: PKC binding assay, competition with 3H-PDBu (glass-fiber filtration). Conditions: for Ki: recombinant human PKC isoform, competition with 3H-PDBu, parentheses = 95% confidence interval, read-out: PKC Ki (nM) beta-1. Here is the method:
(§1) This procedure entails a glass-fiber filtration method to determine bound radioligand. PKC-beta-I and PKC-delta were selected for preliminary evaluation. The former is a member of the conventional PKC subfamily while the latter is a member of the novel PKC sub-family (A. C. Newton. Protein Kinase C: Structure, Function, and Regulation. J. Biol. Chem. 270, 28495-28498 (1995)).
(§2) To a 50 mL polypropylene tube was added Tris-HCl (pH 7.4, 1 M, 1 mL), KCl (1 M, 2 mL), CaCl2 (0.1 M, 30 μL), and bovine serum albumin (40 mg, Sigma-Aldrich). This mixture was diluted to 20 mL with deionized H2O and mixed gently. The buffer was stored on ice until use.
(§3) For every two assays, 3.5 mg phosphatidylserine (Avanti Polar Lipids, porcine, 25 mg/mL CHCl3 solution) was concentrated by removing chloroform under a stream of nitrogen followed by reduced pressure. The solid P S was suspended as vesicles in freshly prepared PKC binding assay buffer (3.5 mL) by sonicating six times for 30 sec, with a 30 sec rest between sonications (Branson Sonifier 250, power=2, 50% duty cycle). The resulting milky cloudy mixture (1 mg/mL) was stored on ice until use.
(§4) Assay PKC was prepared by dissolving a 4 μg aliquot of the indicated recombinant human PKC isoform (Invitrogen) into 11.6 mL of PKC binding assay buffer (this amount is sufficient for two assays). The diluted PKC was stored on ice for immediate use.
(§5) The resulting 500 nM stock solution was further diluted with DMSO to 30 nM.
(§6) Compound dilutions were prepared by serially diluting from a chosen “high” concentration by factors of 3 or 4. For each analog compound, seven concentrations were used to define the inhibition curve (i.e. for exocyclic alkene 34, the analog concentrations used were 3000 nM, 750 nM, 188 nM, 46.9 nM, 11.7 nM, 2.93 nM, and 0.73 nM).
(§7) The resulting solution was vortexed to mix and stored on ice.
(§8) • Glass-fiber filters (Whatman GF/B) were prepared by soaking them in a solution of aqueous polyethyleneimine (10% by vol, 18 mL) in deionized water (600 mL) for >1 h. • 500 mL “rinsing buffer” of 20 mM Tris, pH 7.4 was cooled on ice for the duration of the incubation period and for the remainder of the assay.
(§9) Triplicate data points were obtained for each analog concentration. […]
(§10) The resulting filters had circular perforations for each data point, which were removed with forceps and placed in a scintillation vial. Scintillation vials were filled with Bio-Safe II scintillation fluid (5 mL) and measured for radioactivity using a Beckman LS 6000SC scintillation counter. […] The data were plotted—cpm vs. log(concentration)—using Prism® by GraphPad Software and an IC50 was determined using that program's built-in one-site competition least squares regression function.

The target of another test is T2, PKC delta (Homo sapiens, UniProt Q05655).
T2 construct: purchased Invitrogen
T2 sequence (Q05655 whole entry): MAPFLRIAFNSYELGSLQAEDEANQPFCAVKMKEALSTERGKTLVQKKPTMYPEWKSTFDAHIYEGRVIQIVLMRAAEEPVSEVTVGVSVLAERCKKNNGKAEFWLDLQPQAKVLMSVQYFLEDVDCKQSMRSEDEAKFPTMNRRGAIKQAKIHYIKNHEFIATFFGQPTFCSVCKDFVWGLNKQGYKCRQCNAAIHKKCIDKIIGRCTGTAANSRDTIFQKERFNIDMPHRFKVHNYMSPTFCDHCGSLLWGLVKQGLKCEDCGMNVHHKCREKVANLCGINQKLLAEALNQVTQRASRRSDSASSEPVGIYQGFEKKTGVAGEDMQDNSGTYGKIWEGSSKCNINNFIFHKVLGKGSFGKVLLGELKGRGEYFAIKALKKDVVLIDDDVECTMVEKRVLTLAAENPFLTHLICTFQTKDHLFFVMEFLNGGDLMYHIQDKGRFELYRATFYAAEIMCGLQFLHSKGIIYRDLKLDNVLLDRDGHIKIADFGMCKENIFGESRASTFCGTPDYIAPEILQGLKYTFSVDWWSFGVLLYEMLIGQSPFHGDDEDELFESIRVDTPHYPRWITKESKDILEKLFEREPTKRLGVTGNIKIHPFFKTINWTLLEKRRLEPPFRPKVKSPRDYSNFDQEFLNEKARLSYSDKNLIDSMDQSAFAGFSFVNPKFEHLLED
The description is as above. Conditions: recombinant human PKC isoform, parentheses = 95% confidence interval. Here is the method: as §1, §2, §3, §4, §5, §6, §7, §8, §9, §10

T1 sequence (P05771 whole entry): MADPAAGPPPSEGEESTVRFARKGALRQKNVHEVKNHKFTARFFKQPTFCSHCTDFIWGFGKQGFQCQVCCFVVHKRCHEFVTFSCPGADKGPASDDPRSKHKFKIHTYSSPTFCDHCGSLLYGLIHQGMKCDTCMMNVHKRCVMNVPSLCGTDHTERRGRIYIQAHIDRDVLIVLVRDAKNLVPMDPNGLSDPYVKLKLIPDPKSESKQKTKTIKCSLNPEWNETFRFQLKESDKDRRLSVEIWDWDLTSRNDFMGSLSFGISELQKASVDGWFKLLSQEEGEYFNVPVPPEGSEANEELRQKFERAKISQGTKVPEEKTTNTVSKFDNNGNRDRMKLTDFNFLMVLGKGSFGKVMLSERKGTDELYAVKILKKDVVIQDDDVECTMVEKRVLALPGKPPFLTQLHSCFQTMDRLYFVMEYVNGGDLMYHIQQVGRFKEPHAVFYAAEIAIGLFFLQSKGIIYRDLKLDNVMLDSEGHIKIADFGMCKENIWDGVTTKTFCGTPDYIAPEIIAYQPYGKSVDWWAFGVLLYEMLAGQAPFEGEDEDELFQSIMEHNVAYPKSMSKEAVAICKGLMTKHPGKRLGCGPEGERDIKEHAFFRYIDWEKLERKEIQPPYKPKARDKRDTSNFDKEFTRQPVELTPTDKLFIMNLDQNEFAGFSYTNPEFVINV

As for `CCC/C=C/C=C/C(=O)O[C@H]1/C(=C/C(=O)OC)C[C@H]2CC([C@@H](C)O)OC(=O)C[C@@H](O)C[C@@H]3C[C@H](OC(C)=O)C(C)(C)[C@](O)(C[C@@H]4C/C(=C\C(=O)OC)C[C@H](/C=C/C(C)(C)[C@]1(O)O2)O4)O3` (stereo partly shown) [(E)-enoate 35], the pKi at PKC beta-I was 7.92. Regarding `C=C1C[C@H]2C[C@]3(O)O[C@H](C[C@H](O)CC(=O)OC([C@@H](C)O)C[C@@H]4C/C(=C\C(=O)OC)[C@H](OC(=O)C#CCCCCC)[C@@](O)(O4)C(C)(C)/C=C/[C@@H](C1)O2)C[C@H](OC(C)=O)C3(C)C` (stereo partly shown) [alkene 34], the Ki at PKC beta-I came to 3.9 nM; at PKC delta, 0.76 nM. As to `CCC/C=C/C=C/C(=O)O[C@H]1/C(=C/C(=O)OC)C[C@H]2C[C@H]([C@@H](C)O)OC(=O)C[C@H](O)C[C@@H]3C[C@H](OC(C)=O)C(C)(C)[C@](O)(C[C@@H]4C/C(=C/C(=O)OC)C[C@H](/C=C/C(C)(C)[C@]1(O)O2)O4)O3` [bryostatin 1, reference compound], at PKC beta-I, the Ki came to 1.6 nM.

Values taken from patent publication US12435071B2, “Bryostatin compounds and methods of preparing the same” (priority 2016, dated 2025).
